Assays:
MetAP2 [1] = system: MetAP2; design: method as in PMID 16790550, PMID 22229417; conditions: cited from earlier work
ERK1/2 = system: ERK1/2; design: method as in PMID 19716858; conditions: cited from earlier work
MetAP2 [2] = conditions: cited from earlier work
S100A4 [3] = assay: FRET acceptor-photobleaching analysis in live HeLa cells; type: binding; conditions: ECFP fusion cotransfected with EYFP-S100A4, acceptor photobleaching, n = 8–11, **P < 0.01, ***P < 0.001
S100A4 [4] = assay: Surface plasmon resonance binding to GST-S100A4; conditions: Biacore 3000, captured GST-S100A4, SBD 1 mmol/l, HBS-P pH 7.4, with or without 1 mmol/l CaCl2, 25 °C, duplicated experiment
From the text: The binding of the SBD peptide to S100A4 was examined by Surface plasmon resonance (SPR) with a Biacore 3000 biosensor and GST Capture kit (GE Healthcare, Little Chalfont, UK) according to the manufacturer’s instructions. Goat anti-GST antibody was immobilized on two flow cells of the sensor chip (CM-5) using a standard amine coupling procedure, and then recombinant GST-S100A4 or GST as a negative control was captured. The SBD peptide (1 mmol/l) in HBS-P running buffer (10 mmol/l Hepes, pH 7.4, 150 mmol/l NaCl, 0.005% P20) in the presence or absence of 1 mmol/l CaCl2 was injected over two flow cells of the chip at a flow rate of 10 ml/minute at 25 °C for 5 minutes. The response from the control surface was subtracted, and the data plotted as Resonance Units (RU).

[5] = system: S100A4-MetAP2 interaction; assay: In vitro GST pull-down binding assay S100A4-MetAP2

## CO[C@@H]1[C@H](OC(=O)/C=C/C=C/C=C/C=C/C(=O)O)CC[C@]2(CO2)[C@H]1[C@@]1(C)O[C@@H]1CC=C(C)C [Fumagillin, fumagillin]
MetAP2 [1]
  antiangiogenic activity: potent antiangiogenic agents
ERK1/2
  effect on ERK1/2 activity and cell growth: inhibition of the activity of ERK1/2 and cell growth
MetAP2 [2]
  effect on MetAP2 auto-proteolytic activity: inhibits MetAP2’s auto-proteolytic activity
  effect on MetAP2 turnover rate: decreases its turnover rate

## CO[C@@H]1[C@H](OC(=O)NC(=O)CCl)CC[C@]2(CO2)[C@H]1[C@@]1(C)O[C@@H]1CC=C(C)C [TNP-470]
MetAP2 [1]
  antiangiogenic activity: potent antiangiogenic agents

## ECFP-CBD: CBD sequence subcloned into pECFP-C1, expressed in HeLa cells (TMIEICEKLEDCSRKLIKENGLNAGLAFPTGCSLNNCA; left off: ECFP, end not stated, kept)
S100A4 [3]
  FRET efficiency with EYFP-S100A4 vs negative controls: but not for ECFP-CBD/EYFP-S100A4 (orange bars), were significantly higher than those in respective negative controls

## ECFP-NBD: NBD sequence subcloned into pECFP-C1, expressed in HeLa cells (REAAEAHRQVRKYVMSWIKPGMTMIEICEKLEDCSRKLI; left off: ECFP, end not stated, kept)
S100A4 [3]
  FRET efficiency with EYFP-S100A4 vs negative controls: significantly higher than those in respective negative controls

## ECFP-SBD: SBD sequence subcloned into pECFP-C1, expressed in HeLa cells (REAAEAHRQVRKYVMSWIKPGMTMIEICEKLEDCSRKLIKENGLNAGLAFPTGCSLNNCA; left off: ECFP, end not stated, kept)
S100A4 [3]
  FRET efficiency with EYFP-S100A4 vs negative controls: significantly higher than those in respective negative controls

## SBD: 60 amino acid residues spanning from Arg170 to Ala229 of MetAP2 (REAAEAHRQVRKYVMSWIKPGMTMIEICEKLEDCSRKLIKENGLNAGLAFPTGCSLNNCA)
S100A4 [4]
  binding to S100A4 (SPR): occurred only in the presence of Ca^2+
[5]; [35S]MetAP2, GST/S100A4, 1 mmol/l CaCl2, peptide at 25-fold molar excess of MetAP2
  inhibition of S100A4-MetAP2 interaction (GST pull-down): efficiently blocked the interaction between S100A4 and MetAP2

## methionine aminopeptidase 2 [MetAP2]
[5]; [35S]MetAP2, GST/S100A4, 1 mmol/l CaCl2 or 1 mmol/l EDTA
  binding of MetAP2 to S100A4 (GST pull-down): S100A4 bound to MetAP2 in a Ca^2+-dependent manner

— PMC4445002, “Efficient inhibition of tumor angiogenesis and growth by a synthetic peptide blocking S100A4-methionine aminopeptidase 2 interaction” (Molecular Therapy. Methods & Clinical Development, 2015)
